Values of other authors, collected in patent US7361789B1, “Dihydronaphthalene compounds, compositions, uses thereof, and methods for synthesis” (Amgen Inc., priority 2004, dated 2008).
Read-outs that look alike come from different tables or passages of the source.

- solubility in water (neutral pH): less than 1 μg/mL
- solubility (pH is about 1): about 0.1 mg/mL
- solubility (pH ranges from about 3 to about 5): about 1.6 mg/mL
Structure (SMILES): C[C@@H](NCCCc1cccc(C(F)(F)F)c1)c1cccc2ccccc12 [cinacalcet]
